Results reported in ChEMBL document CHEMBL3045652, “Biorational glycol diesters as dietary toxins versus bioefficacy of sucrose octanoate against lepidopteran larvae” (Ind Crops Prod, 2012).
≈ marks a conversion by molar mass, not a printed value. Calls of active or inactive are those of the source. No cut-off for these calls is given here.

Columns and labels:
[1] = test system: Spodoptera litura; experiment: Insecticidal activity against second-instar larval stage of Spodoptera litura fed with artificial diet containing compound assessed as growth inhibition after 7 days; format: functional, organism-based; settings: for EC50: 168 h
[2] = test system: Helicoverpa armigera; experiment: Insecticidal activity against second-instar larval stage of Helicoverpa armigera fed with artificial diet containing compound assessed as growth inhibition after 7 days; format: functional, organism-based; settings: for EC50: 168 h
[3] = test system: Helicoverpa armigera; experiment: Antifeedant activity against third-instar larval stage of Helicoverpa armigera fed with artificial diet containing compound assessed as efficiency index of ingested food at 9.88 mg/ml after 3 days (reference value: 52%); format: functional
[4] = test system: Spodoptera litura; experiment: Antifeedant activity against third-instar larval stage of Spodoptera litura fed with artificial diet containing compound assessed as relative consumption rate at 8.25 mg/ml after 3 days (reference value: 2.13 +/- 0.18 mg/mg/day); format: functional
[5] = test system: Spodoptera litura; experiment: Antifeedant activity against third-instar larval stage of Spodoptera litura fed with artificial diet containing compound assessed as efficiency index of ingested food at 8.25 mg/ml after 3 days (reference value: 64.5%); format: functional
[6] = test system: Spodoptera litura; experiment: Antifeedant activity against third-instar larval stage of Spodoptera litura fed with artificial diet containing compound assessed as relative growth rate at 8.25 mg/ml after 3 days (reference value: 1.37 +/- 0.12 mg/mg/day); format: functional
[7] = test system: Helicoverpa armigera; experiment: Insecticidal activity against second-instar larval stage of Helicoverpa armigera fed with artificial diet containing compound assessed as mortality after 7 days; format: functional; settings: 168 h
[8] = test system: Spodoptera litura; experiment: Insecticidal activity against second-instar larval stage of Spodoptera litura fed with artificial diet containing compound assessed as mortality after 7 days; format: functional; settings: 168 h
[9] = test system: Helicoverpa armigera; experiment: Antifeedant activity against third-instar larval stage of Helicoverpa armigera fed with artificial diet containing compound assessed as relative growth rate at 9.88 mg/ml after 3 days (reference value: 0.97 +/- 0.13 mg/mg/day); format: functional
[10] = test system: Helicoverpa armigera; experiment: Antifeedant activity against third-instar larval stage of Helicoverpa armigera fed with artificial diet containing compound assessed as relative consumption rate at 9.88 mg/ml after 3 days (reference value: 1.88 +/- 0.14 mg/mg/day); format: functional
[11] = test system: Helicoverpa armigera; experiment: Antifeedant activity against third-instar larval stage of Helicoverpa armigera fed with artificial diet containing compound assessed as efficiency index of ingested food at 5.38 mg/ml after 3 days (reference value: 52%); format: functional
[12] = test system: Spodoptera litura; experiment: Antifeedant activity against third-instar larval stage of Spodoptera litura fed with artificial diet containing compound assessed as relative growth rate at 4.38 mg/ml after 3 days (reference value: 1.37 +/- 0.12 mg/mg/day); format: functional
[13] = test system: Spodoptera litura; experiment: Antifeedant activity against third-instar larval stage of Spodoptera litura fed with artificial diet containing compound assessed as relative consumption rate at 4.38 mg/ml after 3 days (reference value: 2.13 +/- 0.18 mg/mg/day); format: functional
[14] = test system: Spodoptera litura; experiment: Insecticidal activity against second-instar larval stage of Spodoptera litura assessed as increase in mortality applied as spray at 1 to 10 mg/ml after 72 hr; format: functional, organism-based
[15] = test system: Helicoverpa armigera; experiment: Insecticidal activity against second-instar larval stage of Helicoverpa armigera assessed as increase in mortality applied as spray at 1 to 10 mg/ml after 72 hr; format: functional, organism-based
[16] = test system: Helicoverpa armigera; experiment: Antifeedant activity against third-instar larval stage of Helicoverpa armigera fed with artificial diet containing compound assessed as relative growth rate at 5.38 mg/ml after 3 days (reference value: 0.97 +/- 0.13 mg/mg/day); format: functional
[17] = test system: Helicoverpa armigera; experiment: Antifeedant activity against third-instar larval stage of Helicoverpa armigera fed with artificial diet containing compound assessed as relative consumption rate at 5.38 mg/ml after 3 days (reference value: 1.88 +/- 0.14 mg/mg/day); format: functional
[18] = test system: Spodoptera litura; experiment: Antifeedant activity against third-instar larval stage of Spodoptera litura fed with artificial diet containing compound assessed as efficiency index of ingested food at 4.38 mg/ml after 3 days (reference value: 64.5%); format: functional

| Structure (SMILES) | growth inhibition (GI) [1] | EC50 [1] [µg/mL] | growth inhibition (GI) [2] | EC50 [2] [µg/mL] | other results |
| --- | --- | --- | --- | --- | --- |
| CC(C)C(=O)OC1CCC(OC2CCC(OC(=O)C(C)C)CC2)CC1 (stereo not given) [4-(4-O-ISOBUTANOYLCYCLOHEXYLOXY)-CYCLOHEXYL ISOBUTANOATE] | Dose-dependent effect | 7860 (≈ 22.2 mM) | Dose-dependent effect | 8110 (≈ 22.9 mM) | – |
| CCCCCC(=O)OCCOCCOC(=O)CCCCC [DIETHYLENE GLYCOL DIHEXANOATE] | Dose-dependent effect | 1940 (≈ 6.42 mM) | Dose-dependent effect | 3900 (≈ 12.9 mM) | – |
| CCCC(CC)C(=O)OCC(C)OC(=O)C(CC)CCC (stereo not given) | Dose-dependent effect | 3760 (≈ 12.5 mM) | Dose-dependent effect | 4860 (≈ 16.2 mM) | – |
| CC(C)C(=O)OCCCCCOC(=O)C(C)C [PENTANE-1,5-DI-ISOBUTANOATE] | Dose-dependent effect | 7660 (≈ 31.4 mM) | Dose-dependent effect | 7580 (≈ 31 mM) | – |
| CCCCCC(=O)OCCOC(=O)CCCCC [ETHYLENE GLYCOL DIHEXANOATE] | Dose-dependent effect | 1780 (≈ 6.89 mM) | Dose-dependent effect | 2160 (≈ 8.36 mM) | – |
| CCCCCC(=O)OCC(C)OC(=O)CCCCC (stereo not given) | Dose-dependent effect | 3810 (≈ 14 mM) | Dose-dependent effect | 5260 (≈ 19.3 mM) | – |
| CCCCC(=O)OCC(C)OC(=O)CCCC (stereo not given) | Dose-dependent effect | 4240 (≈ 17.4 mM) | Dose-dependent effect | 5540 (≈ 22.7 mM) | – |
| CCCCC(=O)OCC(C)COC(=O)CCCC | Dose-dependent effect | 7020 (≈ 27.2 mM) | Dose-dependent effect | 7840 (≈ 30.3 mM) | – |
| CCCCCC(=O)OCC(C)COC(=O)CCCCC | Dose-dependent effect | 7580 (≈ 26.5 mM) | Dose-dependent effect | 7760 (≈ 27.1 mM) | – |
| CCCCCCCC(=O)OCCOCCOC(=O)CCCCCCC [DIETHYLENE GLYCOL DIOCTANOATE] | Dose-dependent effect | 1540 (≈ 4.3 mM) | Dose-dependent effect | 2880 (≈ 8.03 mM) | – |
| CC(COC(=O)C(C)C)COC(=O)C(C)C | Dose-dependent effect | 7540 (≈ 32.7 mM) | Dose-dependent effect | 8170 (≈ 35.5 mM) | – |
| CCCC(=O)OC1CCC(OC2CCC(OC(=O)CCC)CC2)CC1 (stereo not given) [4-(4-O-BUTANOYLCYCLOHEXYLOXY)-CYCLOHEXYL BUTANOATE] | Dose-dependent effect | 6120 (≈ 17.3 mM) | Dose-dependent effect | 7230 (≈ 20.4 mM) | – |
| CCCC(CC)C(=O)OCCCCCOC(=O)C(CC)CCC (stereo not given) [PENTANE-1,5-DI-(2-ETHYLHEXANOATE)] | Dose-dependent effect | 7850 (≈ 23.9 mM) | Dose-dependent effect | 5560 (≈ 16.9 mM) | ECI [3]: 40%; Activity [4]: 1.99 mg/mg/day; ECI [5]: 46%; Activity [6]: 1.06 mg/mg/day; LC50 [7]: 2000 µg/mL (≈ 6.09 mM); LC50 [8]: 2000 µg/mL (≈ 6.09 mM); Activity [9]: 0.72 mg/mg/day; Activity [10]: 1.8 mg/mg/day |
| CCCC(=O)OCCOCCOCCOC(=O)CCC [TRIETHYLENE GLYCOL DIBUTANOATE] | Dose-dependent effect | 1640 (≈ 5.65 mM) | Dose-dependent effect | 2120 (≈ 7.3 mM) | ECI [11]: 32.7%; Activity [12]: 0.77 mg/mg/day; Activity [13]: 2.06 mg/mg/day; Activity [14]: Active; Activity [15]: Active; LC50 [7]: 2000 µg/mL (≈ 6.89 mM); LC50 [8]: 2000 µg/mL (≈ 6.89 mM); Activity [16]: 0.54 mg/mg/day; Activity [17]: 1.67 mg/mg/day; ECI [18]: 61% |
| CCCC(CC)C(=O)OC1CCC(OC2CCC(OC(=O)C(CC)CCC)CC2)CC1 (stereo not given) [4-(4-O-(2-ETHYL)HEXANOYLCYCLOHEXYLOXY)-CYCLOHEXYL-(2-ETHYL)HEXANOATE] | Dose-dependent effect | 6270 (≈ 14.3 mM) | Dose-dependent effect | 7000 (≈ 16 mM) | – |
| CCCC(=O)OCCOCCOC(=O)CCC [DIETHYLENE GLYCOL DIBUTANOATE] | Dose-dependent effect | 1760 (≈ 7.15 mM) | Dose-dependent effect | 2890 (≈ 11.7 mM) | – |
| CCCC(=O)OCC(C)COC(=O)CCC | Dose-dependent effect | 4360 (≈ 18.9 mM) | Dose-dependent effect | 4230 (≈ 18.4 mM) | – |
| CCCCC(=O)OCCOCCOCCOC(=O)CCCC [TRIETHYLENE GLYCOL DIPENTANOATE] | Dose-dependent effect | 1540 (≈ 4.84 mM) | Dose-dependent effect | 2090 (≈ 6.56 mM) | – |
| CC(C)C(=O)OCCOC(=O)C(C)C [ETHYLENE GLYCOL DIISOBUTANOATE] | Dose-dependent effect | 5000 (≈ 24.7 mM) | Dose-dependent effect | 5880 (≈ 29.1 mM) | – |
| CCCCCCCC(=O)OC1CCC(OC2CCC(OC(=O)CCCCCCC)CC2)CC1 (stereo not given) [4-(4-O-OCTANOYLCYCLOHEXYLOXY)-CYCLOHEXYL OCTANOATE] | Dose-dependent effect | 5760 (≈ 12.3 mM) | Dose-dependent effect | 6340 (≈ 13.6 mM) | – |
| CCCCC(=O)OC1CCC(OC2CCC(OC(=O)CCCC)CC2)CC1 (stereo not given) [4-(4-O-PENTANOYLCYCLOHEXYLOXY)-CYCLOHEXYL PENTANOATE] | Dose-dependent effect | 7890 (≈ 20.6 mM) | Dose-dependent effect | 8240 (≈ 21.5 mM) | – |
| CCCCCCCC(=O)OCC(C)COC(=O)CCCCCCC | Dose-dependent effect | 6210 (≈ 18.1 mM) | Dose-dependent effect | 4540 (≈ 13.3 mM) | – |
| CCCCCCCC(=O)OCCCCCOC(=O)CCCCCCC [PENTANE-1,5-DIOCTANOATE] | Dose-dependent effect | 4760 (≈ 13.4 mM) | Dose-dependent effect | 4670 (≈ 13.1 mM) | – |
| CCCC(=O)OCCCCCOC(=O)CCC [PENTANE-1,5-DIBUTANOATE] | Dose-dependent effect | 4860 (≈ 19.9 mM) | Dose-dependent effect | 4500 (≈ 18.4 mM) | – |
| CCCCCC(=O)OCCCCCOC(=O)CCCCC [PENTANE-1,5-DIHEXANOATE] | Dose-dependent effect | 7510 (≈ 25 mM) | Dose-dependent effect | 8050 (≈ 26.8 mM) | – |
| CC(C)C(=O)OCCOCCOC(=O)C(C)C [DIETHYLENE GLYCOL DIISOBUTANOATE] | Dose-dependent effect | 5120 (≈ 20.8 mM) | Dose-dependent effect | 6450 (≈ 26.2 mM) | – |
| CCCC(CC)C(=O)OCCOC(=O)C(CC)CCC (stereo not given) | Dose-dependent effect | 2800 (≈ 9.78 mM) | Dose-dependent effect | 2440 (≈ 8.52 mM) | – |
| CCCCC(=O)OCCOCCOC(=O)CCCC [DIETHYLENE GLYCOL DIPENTANOATE] | Dose-dependent effect | 1880 (≈ 6.85 mM) | Dose-dependent effect | 3870 (≈ 14.1 mM) | – |
